Measurements: US8716281B2, “Pyrimidine compounds that inhibit anaplastic lymphoma kinase” (Amgen Inc., priority 2010, dated 2014)

target: T1, wild-type human ALK cytoplasmic domain (amino acids 1058-1620) (Homo sapiens, UniProt Q9UM73); assay: ALK Inhibition in Enzyme Assay (Lance TR-FRET); type: biochemical; details: 2 nM enzyme, ATP at 40 μM (Km apparent), 90 minutes, mean of three replicates; read-out: ALK IC50
T1 construct: The cytoplasmic domain (amino acids 1058-1620) of wild-type human ALK; GST (N); made in house; host or cells: SF9 insect cells
T1 sequence (Q9UM73 1058-1620): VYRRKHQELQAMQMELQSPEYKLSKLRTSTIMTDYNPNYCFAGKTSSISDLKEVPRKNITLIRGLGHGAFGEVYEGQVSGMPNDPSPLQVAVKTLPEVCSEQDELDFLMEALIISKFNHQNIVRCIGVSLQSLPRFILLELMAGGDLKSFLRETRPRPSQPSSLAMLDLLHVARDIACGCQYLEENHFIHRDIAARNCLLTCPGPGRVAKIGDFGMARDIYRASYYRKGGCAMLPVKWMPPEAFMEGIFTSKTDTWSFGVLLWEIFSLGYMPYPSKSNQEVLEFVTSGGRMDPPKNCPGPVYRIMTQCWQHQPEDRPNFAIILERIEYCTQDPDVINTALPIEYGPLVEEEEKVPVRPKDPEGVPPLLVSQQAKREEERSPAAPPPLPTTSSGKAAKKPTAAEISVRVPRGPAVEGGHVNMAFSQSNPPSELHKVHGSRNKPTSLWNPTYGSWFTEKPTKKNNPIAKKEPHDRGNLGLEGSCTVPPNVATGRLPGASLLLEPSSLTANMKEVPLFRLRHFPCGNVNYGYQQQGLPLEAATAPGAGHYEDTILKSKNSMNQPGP
Method: ALK Inhibition in Enzyme Assay
Kinase activity of the purified protein was assessed using a Lance® TR-FRET assay. […] The reaction was allowed to proceed for 90 minutes at room temperature and was then terminated with 20 mM EDTA in 50 mM Tris (pH 7.5), 100 mM NaCl, 0.05% BSA, and 0.1% Tween-20. Phosphorylation of the peptide substrate was detected using the Lance® detection reagents streptavidin-allophycocyanin (SA-APC) and Eu-W1024 anti-phosphotyrosine antibody (PT66) from Perkin Elmer Life Sciences (Waltham, Mass.). The plates were read on a RUBY star plate reader (BMG LABTECH, Cary, N.C.) with an excitation wavelength of 320 nm.

IC50 [nM] | Structure (SMILES)
1000 to 5000 | Cc1ccc(CNC(=O)[C@H]2CCCN(c3ccnc(Nc4cccc(C(F)(F)F)c4)n3)C2)cc1 [Example 137, (3S)-N-(4-methylbenzyl)-1-(2-((3-(trifluoromethyl)phenyl)amino)-4-pyrimidinyl)-3-piperidinecarboxamide]
100 to 1000 | COc1cc(Nc2nccc(N3CCC[C@H](C(=O)NCc4cccc(OC(C)C)c4)C3)n2)cc(OC)c1OC [Example 87, (S)-N-(3-(1-methylethoxy)benzyl)-1-(2-((3,4,5-trimethoxyphenyl)amino)-4-pyrimidinyl)-3-piperidinecarboxamide]
100 to 1000 | COc1cc(Nc2nccc(N3CCC[C@H](C(=O)NCc4ccc(C)c(Cl)c4)C3)n2)cc(OC)c1OC [Example 74, (S)-N-(3-chloro-4-methylbenzyl)-1-(2-((3,4,5-trimethoxyphenyl)amino)-4-pyrimidinyl)-3-piperidinecarboxamide]
50 to 100 | COc1cc(Nc2nccc(N3CCC[C@H](C(=O)NCc4ccc(Cl)cc4F)C3)n2)cc(OC)c1OC [Example 29, (S)-N-(4-chloro-2-fluorobenzyl)-1-(2-((3,4,5-trimethoxyphenyl)amino)-4-pyrimidinyl)-3-piperidinecarboxamide]
5000 to 10000 | COc1cc(Nc2nccc(N3CCC[C@@H](C(=O)NCc4ccncc4)C3)n2)cc(OC)c1OC [Example 18, (R)-N-(4-pyridinylmethyl)-1-(2-((3,4,5-trimethoxyphenyl)amino)-4-pyrimidinyl)-3-piperidinecarboxamide]
100 to 1000 | COc1cccc(CNC(=O)[C@H]2CCCN(c3ccnc(Nc4cc(OC)c(OC)c(OC)c4)n3)C2)c1 [Example 38, (S)-N-(3-methoxybenzyl)-1-(2-((3,4,5-trimethoxyphenyl)amino)-4-pyrimidinyl)-3-piperidinecarboxamide]
1000 to 5000 | Cc1ccc(CNC(=O)[C@H]2CCCN(c3ccnc(Nc4cccc(OCc5ccccc5)c4)n3)C2)cc1 [Example 175, (3S)-1-(2-((3-(benzyloxy)phenyl)amino)-4-pyrimidinyl)-N-(4-methylbenzyl)-3-piperidinecarboxamide]
< 50 | COc1cc(Nc2nccc(N3CCC[C@H](C(=O)NCc4cccc(Br)c4)C3)n2)cc(OC)c1OC [Example 113, (S)-N-(3-bromobenzyl)-1-(2-((3,4,5-trimethoxyphenyl)amino)-4-pyrimidinyl)-3-piperidinecarboxamide]
5000 to 10000 | Cc1ccc(CNC(=O)[C@H]2CCCN(c3ccnc(Nc4ccc(=O)n(C)c4)n3)C2)cc1 [Example 147, (3S)-N-(4-methylbenzyl)-1-(2-((1-methyl-6-oxo-1,6-dihydro-3-pyridinyl)amino)-4-pyrimidinyl)-3-piperidinecarboxamide]
1000 to 5000 | Cc1ccc(CNC(=O)[C@H]2CCCN(c3ccnc(Nc4ccc(C)cc4)n3)C2)cc1 [Example 180, (3S)-N-(4-methylbenzyl)-1-(2-((4-methylphenyl)amino)-4-pyrimidinyl)-3-piperidinecarboxamide]
100 to 1000 | COc1cc(Nc2nccc(N3CCC[C@H](C(=O)NCCc4ccc(C)cc4)C3)n2)cc(OC)c1OC [Example 92, (S)-N-(2-(4-methylphenyl)ethyl)-1-(2-((3,4,5-trimethoxyphenyl)amino)-4-pyrimidinyl)-3-piperidinecarboxamide]
50 to 100 | COc1cc(Nc2nccc(N3CCC[C@H](C(=O)NCCc4ccc(C(F)(F)F)cc4)C3)n2)cc(OC)c1OC [Example 91, (S)-N-(2-(4-(trifluoromethyl)phenyl)ethyl)-1-(2-((3,4,5-trimethoxyphenyl)amino)-4-pyrimidinyl)-3-piperidinecarboxamide]

Second part, the molecule before the results:

Structure (SMILES) | IC50 [nM]
Cc1ccc(CNC(=O)[C@H]2CCCN(c3ccnc(Nc4cc(F)cc(F)c4)n3)C2)cc1 [Example 159, (3S)-1-(2-((3,5-difluorophenyl)amino)-4-pyrimidinyl)-N-(4-methylbenzyl)-3-piperidinecarboxamide] | 1000 to 5000
Cc1ccc(CNC(=O)[C@H]2CCCN(c3ccnc(Nc4cccc(-c5cnco5)c4)n3)C2)cc1 [Example 177, (3S)-N-(4-methylbenzyl)-1-(2-((3-(1,3-oxazol-5-yl)phenyl)amino)-4-pyrimidinyl)-3-piperidinecarboxamide] | 100 to 1000
COc1cc(Nc2nccc(N3CCC[C@H](C(=O)NCc4ccc5ccsc5c4)C3)n2)cc(OC)c1OC [Example 64, (S)-N-(1-benzothiophen-6-ylmethyl)-1-(2-((3,4,5-trimethoxyphenyl)amino)-4-pyrimidinyl)-3-piperidinecarboxamide] | 100 to 1000
COc1cc(Nc2nccc(N3CC(C(=O)NCc4ccc(C)cc4)CCC3C)n2)cc(OC)c1OC (mixture of isomers) [Example 194, 6-Methyl-N-(4-Methylbenzyl)-1-(2-(3,4,5-Trimethoxyphenylamino)Pyrimidin-4-Yl)Piperidine-3-Carboxamide] | 100 to 1000
COc1cc(Nc2nccc(N3CCC[C@H](C(=O)NCc4cccc(NS(C)(=O)=O)c4)C3)n2)cc(OC)c1OC [Example 84, (S)-N-(3-((methylsulfonyl)amino)benzyl)-1-(2-((3,4,5-trimethoxyphenyl)amino)-4-pyrimidinyl)-3-piperidinecarboxamide] | 1000 to 5000
COc1cc(Nc2nccc(N3CCC[C@H](C(=O)NCCc4ccc(Br)cc4)C3)n2)cc(OC)c1OC [Example 60, (S)-N-(2-(4-bromophenyl)ethyl)-1-(2-((3,4,5-trimethoxyphenyl)amino)-4-pyrimidinyl)-3-piperidinecarboxamide] | 50 to 100
COc1cc(Nc2nccc(N3CCC[C@H](C(=O)NC(C)c4ccc(O)cc4)C3)n2)cc(OC)c1OC (stereo partly drawn) [Example 53, (S)-N-(1-(4-hydroxyphenyl)ethyl)-1-(2-((3,4,5-trimethoxyphenyl)amino)-4-pyrimidinyl)-3-piperidinecarboxamide] | 5000 to 10000
Cc1ccc(CNC(=O)[C@H]2CCCN(c3ccnc(Nc4ccc(N5CCOCC5)cc4)n3)C2)cc1 [Example 139, (3S)-N-(4-methylbenzyl)-1-(2-((4-(4-morpholinyl)phenyl)ami-no)-4-pyrimidinyl)-3-piperidinecarboxamide] | 1000 to 5000
COc1cc(Nc2nccc(N3CCC[C@H](C(=O)NCCc4ccc(Oc5ccccc5)cc4)C3)n2)cc(OC)c1OC [Example 90, (S)-N-(2-(4-phenoxyphenyl)ethyl)-1-(2-((3,4,5-trimethoxyphenyl)amino)-4-pyrimidinyl)-3-piperidinecarboxamide] | 100 to 1000
Cc1ccc(CNC(=O)[C@H]2CCCN(c3ccnc(Nc4cc(-c5ccc(C)cc5)[nH]n4)n3)C2)cc1 [Example 145, (3S)-N-(4-methylbenzyl)-1-(2-((5-(4-methylphenyl)-1H-pyrazol-3-yl)amino)-4-pyrimidinyl)-3-piperidinecarboxamide] | 5000 to 10000
CCOc1cccc(Nc2nccc(N3CCC[C@H](C(=O)NCc4ccc(C)cc4)C3)n2)c1 [Example 148, (3S)-1-(2-((3-ethoxyphenyl)amino)-4-pyrimidinyl)-N-(4-methylbenzyl)-3-piperidinecarboxamide] | 100 to 1000
Cc1ccc(CNC(=O)[C@H]2CCCN(c3ccnc(Nc4ccc(C(N)=O)cc4)n3)C2)cc1 [Example 173, (3S)-1-(2-((4-carbamoylphenyl)amino)-4-pyrimidinyl)-N-(4-methylbenzyl)-3-piperidinecarboxamide] | 1000 to 5000
